# PubChem BioAssay AID2060891 (Molecular Pharmacology Branch, DTP, NCI, 2025)
# Tested on: K98450-129-R-PDC complex spheroid growth, percent test/control
# Assay: Anticancer human tumor K98450-129-R-PDC patient-derived colon adenocarcinoma cell line growth inhibition [RAS]
# Conditions: for IC50: curve of first compound; for viability, T/C: stronger effect = lower value
# From the text: RAS pathway inhibitors in Combinations in Complex Spheroids
# A high-throughput screen of multi-cell type tumor spheroids was designed to identify active combinations of RAS pathway inhibitors and targeted small molecules. Complex spheroids include a stromal component modeled by human endothelial cells (HUVEC) and fibroblasts modeled by human mesenchymal stem cells (MSCs). The concentration ranges selected for each drug and investigational agent were based upon clinically achievable concentrations if the clinical Cmax of the agent was known.
# Compounds. The drugs and investigational agents: abemaciclib (NSC768073), cobimetinib (NSC768068), divarasib (GDC6063, NSC841802), docetaxel (NSC628503), GDC-1971 (RLY-1971, NSC841576), gemcitabine (NSC613327), inavolisib (NSC800729), ipatasertib (NSC767898), KB-0742 (NSC834161), MRTX-1133 (NSC836407), osimertinib (NSC779217), RMC-4630 (NSC839698), RMC-6236 (NSC851965), RMC-6291 (NSC852671), Ro-3306 (NSC812927), sapanisertib (NSC764658), SN-38 (NSC673596), staurosporine (NSC755774), SY5609 (NSC837396), and tovorafenib (DAY101, NSC766906), were obtained from the National Cancer Institute (NCI) Developmental Therapeutics Program Chemical Repository. The FDA-approved anticancer drug set is available from the NCI Developmental Therapeutics Program. […] The stock solutions were prepared in dimethyl sulfoxide (DMSO, Sigma-Aldrich, St. Louis, MO, cat. D2650) at 800-fold the tested concentration and stored at -70 degrees C prior to their use. All drugs and investigational agents were tested over a range starting from a high concentration at or near the clinical Cmax and decreasing in half-log increments. If the clinical Cmax for an agent had not been determined, the highest concentration tested was 10 microM.
# Cell Culture. All cells were maintained in an incubator at 37 degrees C and 5% CO2 with 95% humidity. The PDC lines were cultured according to standard operating procedures established by the NCI PDMR. All PDCs were thawed and cultured in Matrigel-coated flasks prepared with a working solution of 1X Ham's F-12 nutrient mix, without supplementation (Invitrogen, Waltham, MA, cat. 11765054), 100 U/mL penicillin-streptomycin (Invitrogen, cat. 15140122), and 2.5% Matrigel (Corning Inc., Corning, NY, cat. 354248) for the first three passages. The 362531-283-R-J2-PDC and 782815-120-R-J1-PDC lines were cultured in 6C/Colon 1B media, which includes advanced DMEM/F-12 (Thermo Fisher Scientific, cat. 12634028), 10 mM HEPES (Thermo Fisher Scientific, cat. 15630080), 1X GlutaMAX supplement (Thermo Fisher Scientific, cat. 35050061), 0.1 mg/mL primocin (InvivoGen, San Diego, CA, cat. ant-pm-2), 10% defined fetal bovine serum, heat inactivated (HyClone Laboratories Inc., Logan, UT, cat. SH30070.03HI), 50% L-WRN conditioned media (ATCC, cat. CRL-3276), 1.25 mM N-Acetyl-L-cysteine (Sigma-Aldrich, cat. A9165), 10 mM nicotinamide (Sigma-Aldrich, cat. N0636), 1X B-27 supplement (Thermo Fisher Scientific, cat. 17504044), 1X N-2 supplement (Thermo Fisher Scientific, cat. 17502048), 50 ng/mL human EGF (Thermo Fisher Scientific, cat. PHG0311), and 10 microM Y-27632 dihydrochloride (Tocris Bioscience, cat. 1254). The K12877-001-R-J1-PDC line was cultured in 6I media, which includes all 6C/Colon 1B media plus 10 ng/mL human FGF-10 (PeproTech, cat. 100-26), 1 ng/mL human FGF-2 (PeproTech, cat. 100-18B), 1 µM prostaglandin E2 (Tocris Bioscience, cat. 2296), […] hydrocortisone (Sigma-Aldrich, cat. H4001), and […] bovine insulin (Sigma-Aldrich, cat. I6634). The K86415-001-R-J1-PDC line was cultured in 6D media, which includes all 6C/Colon 1B media components minus the L-WRN conditioned media. The 485176-168-R4-J1-PDC was cultured in PANC media, which includes all 6C/Colon 1B media plus 100 ng/mL human FGF-10 (PeproTech, cat. 100-26), 500 nM SB-431542 (Selleckchem, cat. S1067), and 10 nM gastrin (Tocris Bioscience, cat. 3006). […]
# 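Further: spheroids exposed to agents for seven days before the viability readout.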
# 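Wherever viability, T/C is given: luminescence used as a proxy for viable cell amount.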
smiles,measurement,setting,value
CCN1CCN(Cc2ccc(Nc3ncc(F)c(-c4cc(F)c5nc(C)n(C(C)C)c5c4)n3)nc2)CC1 + CCn1c(-c2cccnc2C(C)OC)c2c3cc(ccc31)N1CCOC(CC(NC(=O)C(C(C)C)N(C)C(=O)C3(F)CCN(C(=O)C#CC(C)(C)N(C)C)CC3)C(=O)N3CCCC(N3)C(=O)OCC(C)(C)C2)C1,IC50,second compound 0.000949 µM,239 nM
same,IC50,second compound 0.003 µM,13.2 nM
same,IC50,second compound 0.00949 µM,< 3.16 nM
same,IC50,second compound 0.03 µM,< 3.16 nM
same,IC50,second compound 0.0949 µM,< 3.16 nM
same,IC50,second compound 0.3 µM,< 3.16 nM
same,"viability, T/C","second compound 0.000949 µM, first compound 0.00316 µM",72.8%
same,"viability, T/C","second compound 0.000949 µM, first compound 0.01 µM",68.7%
same,"viability, T/C","second compound 0.000949 µM, first compound 0.0316 µM",70.3%
same,"viability, T/C","second compound 0.000949 µM, first compound 0.1 µM",54.4%
same,"viability, T/C","second compound 0.000949 µM, first compound 0.316 µM",44.9%
same,"viability, T/C","second compound 0.000949 µM, first compound 1 µM",52.2%
same,"viability, T/C","second compound 0.003 µM, first compound 0.00316 µM",60%
same,"viability, T/C","second compound 0.003 µM, first compound 0.01 µM",52.6%
same,"viability, T/C","second compound 0.003 µM, first compound 0.0316 µM",48.2%
same,"viability, T/C","second compound 0.003 µM, first compound 0.1 µM",39.2%
same,"viability, T/C","second compound 0.003 µM, first compound 0.316 µM",43%
same,"viability, T/C","second compound 0.003 µM, first compound 1 µM",47.4%
same,"viability, T/C","second compound 0.00949 µM, first compound 0.00316 µM",49.7%
same,"viability, T/C","second compound 0.00949 µM, first compound 0.01 µM",41.7%
same,"viability, T/C","second compound 0.00949 µM, first compound 0.0316 µM",38.9%
same,"viability, T/C","second compound 0.00949 µM, first compound 0.1 µM",34.5%
same,"viability, T/C","second compound 0.00949 µM, first compound 0.316 µM",36.6%
same,"viability, T/C","second compound 0.00949 µM, first compound 1 µM",43.4%
same,"viability, T/C","second compound 0.03 µM, first compound 0.00316 µM",37.6%
same,"viability, T/C","second compound 0.03 µM, first compound 0.01 µM",37.6%
same,"viability, T/C","second compound 0.03 µM, first compound 0.0316 µM",34.3%
same,"viability, T/C","second compound 0.03 µM, first compound 0.1 µM",35.3%
same,"viability, T/C","second compound 0.03 µM, first compound 0.316 µM",43.8%
same,"viability, T/C","second compound 0.03 µM, first compound 1 µM",45.9%
same,"viability, T/C","second compound 0.0949 µM, first compound 0.00316 µM",39.6%
same,"viability, T/C","second compound 0.0949 µM, first compound 0.01 µM",34.4%
same,"viability, T/C","second compound 0.0949 µM, first compound 0.0316 µM",34.5%
same,"viability, T/C","second compound 0.0949 µM, first compound 0.1 µM",32.1%
same,"viability, T/C","second compound 0.0949 µM, first compound 0.316 µM",38.9%
same,"viability, T/C","second compound 0.0949 µM, first compound 1 µM",48.8%
same,"viability, T/C","second compound 0.3 µM, first compound 0.00316 µM",30.8%
same,"viability, T/C","second compound 0.3 µM, first compound 0.01 µM",32.1%
same,"viability, T/C","second compound 0.3 µM, first compound 0.0316 µM",32.1%
same,"viability, T/C","second compound 0.3 µM, first compound 0.1 µM",28.6%
same,"viability, T/C","second compound 0.3 µM, first compound 0.316 µM",36.1%
same,"viability, T/C","second compound 0.3 µM, first compound 1 µM",41.8%
